This is an account of results in USRE47689E1, “Compounds for treating spinal muscular atrophy” (PTC Therapeutics, Inc., priority 2011, dated 2019).

Molecules are shown by their SMILES.

Data set [1] deals with SMN2 minigene (full length SMN2 minigene mRNA containing SMN2 exon 7). The experiment in a line: SMN2 minigene mRNA splicing RT-qPCR assay in cultured cells. Format: cell-based, human. The settings on record: Homo sapiens, HEK293-H; HEK293H cells stably transfected with SMN2-A minigene; 24 hours; 7-point concentration curve; 1.5-fold relative to vehicle-treated cells; read-out: EC1.5x for production of full length SMN2 mRNA. A digest of the protocol: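 HEK293H cells stably carrying the SMN2-A minigene treated 24 h at 37° C with compound (DMSO, 200× stock), then lysed. Multiplex RT-qPCR (SMN primers 0.4 μM final; 40 cycles) measures full-length exon 7-containing minigene mRNA, normalized to GAPDH and to vehicle; EC1.5x derived and binned by stars.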
For orientation: Real-time PCR tracks product formation cycle by cycle.

For data set [2], the system named is Smn protein. The experiment in a line: Smn protein assay in cultured cells (SMN HTRF). The class given is cell-based, human. As to conditions: 48 hours; for EC1.5x (concentration giving 1.5-fold Smn protein increase): SMA Type 1 patient fibroblast cells (GM03813), 7-point concentration curve, SMN HTRF, concentration producing 1.5 times Smn protein vs DMSO vehicle control, read-out: EC1.5x for Smn protein expression; for maximum fold (Fold) increase of Smn protein: SMA patient fibroblast cells, 7-point concentration data, fold increase relative to vehicle control (SMN HTRF). The gist of the method: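 Lysates in RIPA with protease inhibitors are incubated overnight at room temperature with HTRF anti-SMN antibodies. EC1.5x is derived from fold increase in ΔF over vehicle.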
For orientation: In TR-FRET formats the signal depends on donor and acceptor labels being close together.

By melting point is commonly meant the temperature, or range, at which the solid turns liquid. `Cc1cc(F)c2nc(-c3cc4ccc(N5CCN6CCC[C@@H]6C5)cc4oc3=O)cn2c1` [Compound 611, 3-(8-fluoro-6-methylimidazo[1,2-a]pyridin-2-yl)-7-[(8aR)-hexahydropyrrolo[1,2-a]pyrazin-2(1H)-yl]-2H-chromen-2-one]: the melting point was 296 to 306 °C. In data set [1], the EC (1.5-fold) was in the range of 0.3 to 1 µM. In data set [2], the EC1.5x (concentration giving 1.5-fold Smn protein increase) is 1000 to 3000 nM; the “maximum fold (Fold) increase of Smn protein” value (“maximum fold (Fold) increase” below) was “**** (fold increase between >1.5 and ≤1.65)”.
Compound `CCc1cn2cc(-c3cc4ccc(N5CCNCC5)cc4oc3=O)nc2s1` [Compound 428, 3-(2-ethylimidazo[2,1-b][1,3]thiazol-6-yl)-7-(piperazin-1-yl)-2H-chromen-2-one] registered a melting point of 231 to 236 °C. In addition, the EC (1.5-fold) in data set [1] is 1 to 3 µM. Moreover, in data set [2], the “maximum fold (Fold) increase” value is “* (maximum fold increase of ≤1.2)”.
`Cc1cn2cc(-c3cc4ccc(N5CCC(NC(C)C)CC5)cc4oc3=O)nc2c(C)n1` [Compound 923, 3-(6,8-dimethylimidazo[1,2-a]pyrazin-2-yl)-7-[4-(propan-2-ylamino)piperidin-1-yl]-2H-chromen-2-one] returned a melting point of 216 to 218 °C. In data set [1], the EC (1.5-fold) was < 0.1 µM. Also, in data set [2], the EC1.5x (concentration giving 1.5-fold Smn protein increase) lay in the range of 300 to 1000 nM; the “maximum fold (Fold) increase” value is “*** (fold increase between >1.35 and ≤1.5)”.
The compound `CCN(CC)CCc1ccc2cc(-c3cn4cc(C)nc(C)c4n3)c(=O)oc2c1` [Compound 968, 7-[2-(diethylamino)ethyl]-3-(6,8-dimethylimidazo[1,2-a]pyrazin-2-yl)-2H-chromen-2-one] yielded a melting point of 190 to 193 °C. The EC (1.5-fold) in data set [1] is < 0.1 µM. For the same compound, in data set [2], the EC1.5x (concentration giving 1.5-fold Smn protein increase) is < 300 nM and the “maximum fold (Fold) increase” value was “***** (fold increase >1.65)”.
On to `C[C@@H]1CN(c2ccc3cc(-c4cn5cccc(C(F)(F)F)c5n4)c(=O)oc3c2)C[C@H](C)N1` [Compound 211, 7-[(3R,5S)-3,5-dimethylpiperazin-1-yl]-3-[8-(trifluoromethyl)imidazo[1,2-a]pyridin-2-yl]-2H-chromen-2-one], for which the melting point was in the range of 295 to 298 °C. Besides, in data set [1], the EC (1.5-fold) lay in the range of 0.3 to 1 µM. The “maximum fold (Fold) increase” value in data set [2] was “* (maximum fold increase of ≤1.2)”.
In turn, `COc1cccn2cc(-c3cc4ccc(N5CCN(C)CC5)cc4oc3=O)nc12` [Compound 403, 3-(8-methoxyimidazo[1,2-a]pyridin-2-yl)-7-(4-methylpiperazin-1-yl)-2H-chromen-2-one] registered a melting point of 202 to 205 °C. In addition, the EC (1.5-fold) in data set [1] was 3 to 30 µM. Further, in data set [2], the “maximum fold (Fold) increase” value is on record as “* (maximum fold increase of ≤1.2)”.
`Cc1cc(F)c2nc(-c3cc4ccc(N[C@H]5CCNC5)cc4oc3=O)cn2c1` [Compound 582, 3-(8-fluoro-6-methylimidazo[1,2-a]pyridin-2-yl)-7-[(3S)-pyrrolidin-3-ylamino]-2H-chromen-2-one] yielded a melting point of 230 to 240 °C. Also, in data set [1], the EC (1.5-fold) is 0.3 to 1 µM. Further, in data set [2], the “maximum fold (Fold) increase” value is “** (fold increase between >1.2 and ≤1.35)”.
Regarding `O=c1oc2cc(CO)cc(F)c2cc1-c1cn2ccsc2n1` [Compound 397, 5-fluoro-7-(hydroxymethyl)-3-(imidazo[2,1-b][1,3]thiazol-6-yl)-2H-chromen-2-one], the melting point was in the range of 278 to 282 °C. Besides, in data set [1], the EC (1.5-fold) fell in the range of 3 to 30 µM. The “maximum fold (Fold) increase” value in data set [2] is “* (maximum fold increase of ≤1.2)”.
`O=C(O)C(F)(F)F.O=c1oc2cc(N3CCNCC3)ccc2cc1-c1nc(C(F)(F)F)cs1` [Compound 52, 7-(piperazin-1-yl)-3-[4-(trifluoromethyl)-1,3-thiazol-2-yl]-2H-chromen-2-one trifluoroacetate]: the melting point is 221 to 229 °C. Besides, in data set [1], the EC (1.5-fold) lay within 0.3 to 1 µM. In addition, the “maximum fold (Fold) increase” value in data set [2] is “* (maximum fold increase of ≤1.2)”.
`Cc1ccc(-c2cc3ccc(N4CCN(C)CC4)cc3oc2=O)cn1` [Compound 164, 7-(4-methylpiperazin-1-yl)-3-(6-methylpyridin-3-yl)-2H-chromen-2-one] returned a melting point of 158 to 160 °C. Further, the EC (1.5-fold) in data set [1] fell in the range of 1 to 3 µM. In data set [2], the “maximum fold (Fold) increase” value is “* (maximum fold increase of ≤1.2)”.
Take `Cc1nccn2cc(-c3cc4ccc(N5C[C@@H](C)N[C@@H](C)C5)cc4oc3=O)nc12` [Compound 552, 7-[(3R,5S)-3,5-dimethylpiperazin-1-yl]-3-(8-methylimidazo[1,2-a]pyrazin-2-yl)-2H-chromen-2-one]: the melting point lay in the range of 250 to 258 °C. For the same compound, the EC (1.5-fold) in data set [1] is < 0.1 µM. Besides, in data set [2], the EC1.5x (concentration giving 1.5-fold Smn protein increase) was < 300 nM; the “maximum fold (Fold) increase” value was “**** (fold increase between >1.5 and ≤1.65)”.
Compound `Cc1cc(Cl)c2nc(-c3cc4ccc(N5CCN(C)CC5)cc4oc3=O)cn2c1` [Compound 343, 3-(8-chloro-6-methylimidazo[1,2-a]pyridin-2-yl)-7-(4-methylpiperazin-1-yl)-2H-chromen-2-one] showed a melting point of 245 to 253 °C. The EC (1.5-fold) in data set [1] is 0.1 to 0.3 µM. For the same compound, the “maximum fold (Fold) increase” value in data set [2] is given as “* (maximum fold increase of ≤1.2)”.
`COc1ccc(-c2cc3ccc(N4CCN[C@@H](C)C4)cc3oc2=O)c(OC)c1` [Compound 467, 3-(2,4-dimethoxyphenyl)-7-[(3S)-3-methylpiperazin-1-yl]-2H-chromen-2-one] registered a melting point of 103 to 105 °C. Moreover, the EC (1.5-fold) in data set [1] lay within 3 to 30 µM. Moreover, the “maximum fold (Fold) increase” value in data set [2] is given as “* (maximum fold increase of ≤1.2)”.
The compound `Cc1nc(Cl)cn2cc(-c3cc4ccc(N5CCN[C@H](C)C5)cc4oc3=O)nc12` [Compound 699, 3-(6-chloro-8-methylimidazo[1,2-a]pyrazin-2-yl)-7-[(3R)-3-methylpiperazin-1-yl]-2H-chromen-2-one] returned a melting point of 265 to 268 °C. Also, the EC (1.5-fold) in data set [1] was in the range of 0.1 to 0.3 µM. In data set [2], the EC1.5x (concentration giving 1.5-fold Smn protein increase) lay within 300 to 1000 nM and the “maximum fold (Fold) increase” value is on record as “***** (fold increase >1.65)”.
The compound `Cc1ccn2cc(-c3cc4ccc(NCCCN(C)C)cc4oc3=O)nc2c1` [Compound 475, 7-{[3-(dimethylamino)propyl]amino}-3-(7-methylimidazo[1,2-a]pyridin-2-yl)-2H-chromen-2-one] registered a melting point of 165 to 170 °C. Further, in data set [1], the EC (1.5-fold) lay in the range of 3 to 30 µM. Further, the “maximum fold (Fold) increase” value in data set [2] is recorded as “* (maximum fold increase of ≤1.2)”.
Consider `Cc1cn2cc(-c3cc4ccc(N5CC[C@H](N(C)C)C5)cc4oc3=O)ccc2n1` [Compound 717, 7-[(3S)-3-(dimethylamino)pyrrolidin-1-yl]-3-(2-methylimidazo[1,2-a]pyridin-6-yl)-2H-chromen-2-one], for which the melting point lay in the range of 230 to 234 °C. In addition, the EC (1.5-fold) in data set [1] lay in the range of 0.3 to 1 µM. Besides, the “maximum fold (Fold) increase” value in data set [2] is “*** (fold increase between >1.35 and ≤1.5)”.
Regarding `Cc1cn2cc(-c3cc4ccc(N5CCN(CCCF)[C@@H](C)C5)cc4oc3=O)nc2c(C)n1` [Compound 900, 3-(6,8-dimethylimidazo[1,2-a]pyrazin-2-yl)-7-[(3S)-4-(3-fluoropropyl)-3-methylpiperazin-1-yl]-2H-chromen-2-one], the melting point lay in the range of 215 to 217 °C. Further, the EC (1.5-fold) in data set [1] was < 0.1 µM. Also, in data set [2], the EC1.5x (concentration giving 1.5-fold Smn protein increase) was < 300 nM and the “maximum fold (Fold) increase” value is given as “***** (fold increase >1.65)”.
With `Cc1cn2cc(-c3cc4ccc(N5CCN(C)CC5)cc4oc3=O)ccc2n1` [Compound 678, 3-(2-methylimidazo[1,2-a]pyridin-6-yl)-7-(4-methylpiperazin-1-yl)-2H-chromen-2-one], the melting point was in the range of 235 to 238 °C. Also, the EC (1.5-fold) in data set [1] is < 0.1 µM. Further, in data set [2], the EC1.5x (concentration giving 1.5-fold Smn protein increase) is < 300 nM and the “maximum fold (Fold) increase” value is listed as “***** (fold increase >1.65)”.
In the case of `Cc1cc(F)c2nc(-c3cc4ccc(N5CCN6CCC5CC6)cc4oc3=O)cn2c1` [Compound 561, 7-(1,4-diazabicyclo[3.2.2]non-4-yl)-3-(8-fluoro-6-methylimidazo[1,2-a]pyridin-2-yl)-2H-chromen-2-one], the melting point was in the range of 287 to 297 °C. In data set [1], the EC (1.5-fold) is 0.3 to 1 µM. In data set [2], the EC1.5x (concentration giving 1.5-fold Smn protein increase) was < 300 nM; the “maximum fold (Fold) increase” value is “**** (fold increase between >1.5 and ≤1.65)”.
As for `C[C@H]1CN(c2ccc3cc(-c4cn5cccnc5n4)c(=O)oc3c2)CCN1` [Compound 170, 3-(imidazo[1,2-a]pyrimidin-2-yl)-7-[(3S)-3-methylpiperazin-1-yl]-2H-chromen-2-one], the melting point is 282 to 285 °C. Besides, the EC (1.5-fold) in data set [1] lay within 0.3 to 1 µM. In addition, in data set [2], the “maximum fold (Fold) increase” value was “** (fold increase between >1.2 and ≤1.35)”.
`O=c1oc2cc(N3CC4CCC3CN4)ccc2cc1-c1cn2cccc(Cl)c2n1` (stereo not drawn) [Compound 527, 3-(8-chloroimidazo[1,2-a]pyridin-2-yl)-7-(2,5-diazabicyclo[2.2.2]oct-2-yl)-2H-chromen-2-one] had a melting point of 178 to 182 °C. Further, in data set [1], the EC (1.5-fold) is 0.1 to 0.3 µM. In data set [2], the EC1.5x (concentration giving 1.5-fold Smn protein increase) is < 300 nM; the “maximum fold (Fold) increase” value was “**** (fold increase between >1.5 and ≤1.65)”.
